Assay results taken from ChEMBL document CHEMBL3881525, “Analogs of dehydrophenylahistins and their therapeutic use” (2007).
In brackets after ≈: the same amount, converted by molar mass. Activity calls are given as the source filed them. The rule behind the calls is not given here.

How the values were obtained:
[1] = Cytotoxicity against human HT-29 cells assessed as reduction in cell viability measured after 48 hrs by resazurin dye-based fluorometric analysis; format: functional
[2] = Cytotoxicity against human HT-29 cells assessed as reduction in cell viability measured after 48 hrs by resazurin dye-based fluorometric analysis relative to control; format: functional
[3] = Cytotoxicity against human PC3 cells assessed as reduction in cell viability measured after 48 hrs by resazurin dye-based fluorometric analysis relative to control; format: functional, PC-3; parameters: concentration or dose not given beside the values
Aspergillus fumigatus [4] = assay: Antifungal activity against Aspergillus fumigatus isolate 1 measured after 48 hrs by broth dilution method; format: functional; settings: isolate 1, 48 h
[5] = Antifungal activity against Trichophyton rubrum isolate 1 measured after 48 hrs by broth dilution method; format: functional
[6] = Antifungal activity against Trichophyton mentagrophytes isolate 1 measured after 48 hrs by broth dilution method; format: functional
[7] = Antifungal activity against Epidermophyton floccosum isolate 1 measured after 48 hrs by broth dilution method; format: functional
[8] = Antifungal activity against Trichophyton mentagrophytes isolate 2 measured after 48 hrs by broth dilution method; format: functional
[9] = Antifungal activity against Trichophyton rubrum isolate 2 measured after 48 hrs by broth dilution method; format: functional
Aspergillus fumigatus [10] = assay: Antifungal activity against Aspergillus fumigatus isolate 2 measured after 48 hrs by broth dilution method; format: functional; settings: isolate 2, 48 h
HL-60 = assay: Ratio of EC50 for human mitoxantrone-sensitive HL60 cells to EC50 for human mitoxantrone-resistant HL60/MX2 cells; format: functional
Tubulin (Homo sapiens) [11] = molecular target: T1, Tubulin (Homo sapiens) (UniProt P68371+Q9H4B7+P0DPH7+P68366+Q13509+Q71U36+P04350+Q3ZCM7+P07437+P68363+Q9BQE3+Q6PEY2+Q13885+Q9BVA1+Q9BUF5); assay: Induction of microtubule depolymerization in HUVEC at 1.5 to 5 uM by turbidity spectroscopic analysis; format: cell-based
Tubulin (Homo sapiens) [12] = molecular target: T1, Tubulin (Homo sapiens); assay: Induction of microtubule depolymerization in HUVEC at 20 nM measured after 30 mins by DAPI-staining based immunofluorescence analysis; format: cell-based
[13] = Antiproliferative activity against taxol-resistant human MES-SA/Dx5 cells expressing MDR1 mRNA and P-gp; format: functional, cell-based
MES-SA = assay: Ratio of EC50 for taxol-resistant human MES-SA/DX5 cells expressing MDR1 mRNA and P-gp to EC50 for taxol-sensitive human MES-SA cells; format: functional

SMILES | EC50 ([1]; Homo sapiens, HT-29, 48 h) | inhibition (INH) [2] | other results
CC(C)(C)c1[nH]cnc1/C=c1\[nH]c(=O)/c(=C/c2cc([N+](=O)[O-])ccc2Cl)[nH]c1=O | 51 to 53.4 nM | 86% | Activity [3]: 100%
CC(C)(C)c1ocnc1/C=c1\[nH]c(=O)/c(=C/c2cc3ccccc3s2)[nH]c1=O | > 2000 nM | – | –
CC(C)(C)c1[nH]cnc1/C=c1\[nH]c(=O)/c(=C/c2cc(Br)cs2)[nH]c1=O.O=C(O)C(F)(F)F | 1710 nM | 86% | –
C=CC(C)(C)c1[nH]cnc1/C=C1\N=C(OC)C(Cc2ccccc2)N=C1OC (stereo unspecified) | > 2000 nM | 4% | –
Cc1c(F)cccc1/C=c1\[nH]c(=O)/c(=C/c2nc[nH]c2C(C)(C)C)[nH]c1=O.O=C(O)C(F)(F)F | – | 86% | –
CC(C)(C)c1[nH]cnc1/C=c1\[nH]c(=O)/c(=C/c2cc(Cl)ccc2O)[nH]c1=O.O=C(O)C(F)(F)F | > 2000 nM | 37% | –
COc1cc(/C=c2\[nH]c(=O)/c(=C/c3nc[nH]c3C(C)(C)C)[nH]c2=O)cc(OC)c1 | 42 to 45.4 nM | 87% | Activity [3]: 82%
Cc1[nH]cnc1/C=c1\[nH]c(=O)/c(=C/c2nc[nH]c2C(C)(C)C)[nH]c1=O.O=C(O)C(F)(F)F.O=C(O)C(F)(F)F | 2350 to 2790 nM | 84% | –
CC(C)(C)c1[nH]cnc1/C=c1\[nH]c(=O)/c(=C/c2cc(Cl)cc(Cl)c2)[nH]c1=O.O=C(O)C(F)(F)F | – | 87% | –
COc1ccc(F)c(/C=c2\[nH]c(=O)/c(=C/c3nc[nH]c3C(C)(C)C)[nH]c2=O)c1.O=C(O)C(F)(F)F | 19 to 20.3 nM | 88% | –
COc1cccc(C)c1/C=c1\[nH]c(=O)/c(=C/c2nc[nH]c2C(C)(C)C)[nH]c1=O | 517 nM | – | –
CCc1ccc(/C=c2\[nH]c(=O)/c(=C/c3nc[nH]c3C(C)(C)C)[nH]c2=O)s1.O=C(O)C(F)(F)F | – | 87% | –
CC(C)(C)c1ccc(O)c(/C=c2\[nH]c(=O)/c(=C/c3nc[nH]c3C(C)(C)C)[nH]c2=O)c1.O=C(O)C(F)(F)F | – | 80% | –
CC(C)(C)c1[nH]cnc1/C=c1\[nH]c(=O)/c(=C/c2cccc3c2OCO3)[nH]c1=O.O=C(O)C(F)(F)F | – | 82% | EC50 ([1]; ht-29): 477 to 520 nM
CCC(C)n1ncn(-c2ccc(N3CCN(c4ccc(OCC5COC(Cn6cncn6)(c6ccc(Cl)cc6Cl)O5)cc4)CC3)cc2)c1=O (stereo unspecified) [ITRACONAZOLE] | – | – | MIC (Aspergillus fumigatus [4]): 1 µg/mL (≈ 1.42 µM)
CC(C)(C)c1[nH]cnc1/C=c1\[nH]c(=O)/c(=C/c2cccc(OC(F)(F)F)c2)[nH]c1=O.O=C(O)C(F)(F)F | 13 to 14.3 nM | 87% | –
COc1cccc2cc3c(=O)[nH]/c(=C\c4nc[nH]c4C(C)(C)C)c(=O)n3c12 | 6920 to 7040 nM | 58 - 100% | –
CC(C)(C)c1[nH]cnc1/C=c1\[nH]c(=O)/c(=C/c2ccccc2N)[nH]c1=O.O=C(O)C(F)(F)F | – | 86% | –
Cn1cccc1/C=c1\[nH]c(=O)/c(=C/c2nc[nH]c2C(C)(C)C)[nH]c1=O.O=C(O)C(F)(F)F | 105 to 117 nM | 88% | –
CCc1ccc(/C=c2\[nH]c(=O)/c(=C/c3nc[nH]c3C(C)(C)C)[nH]c2=O)o1.O=C(O)C(F)(F)F | 2420 nM | 86% | –
Cc1cccc(/C=c2\[nH]c(=O)/c(=C/c3nc[nH]c3C(C)(C)C)[nH]c2=O)c1C.O=C(O)C(F)(F)F | 2.96 to 3 nM | 87% | –
C=CC(C)(C)c1[nH]cnc1/C=C1\NC(=O)C(Cc2ccccc2)N=C1OC (stereo unspecified) | > 2000 nM | 13% | –
COc1cccc(/C=c2\[nH]c(=O)/c(=C/c3nc[nH]c3C(C)(C)C)[nH]c2=O)c1N.O=C(O)C(F)(F)F | – | 87% | –
CC(C)(C)c1[nH]cnc1/C=c1\[nH]c(=O)/c(=C/c2cccc3c2OCO3)[nH]c1=O | – | – | EC50 ([1]; ht-29): 52 nM
CC(C)(C)c1[nH]cnc1/C=c1\[nH]c(=O)/c(=C/c2ccc(Br)o2)[nH]c1=O.O=C(O)C(F)(F)F | – | 87% | –

SMILES | EC50 ([1]; Homo sapiens, HT-29, 48 h) | inhibition (INH) [2] | other results
COc1ccc(/C=c2\[nH]c(=O)/c(=C/c3nc[nH]c3C(C)(C)C)[nH]c2=O)c(O)c1.O=C(O)C(F)(F)F | > 2000 nM | 8% | –
C=CC(C)(C)c1[nH]cnc1/C=c1\[nH]c(=O)/c(=C\c2ccc(OC)cc2)[nH]c1=O | – | 63% | –
Cc1cccc(/C=c2\[nH]c(=O)/c(=C/c3nc[nH]c3C(C)(C)C)[nH]c2=O)n1.O=C(O)C(F)(F)F.O=C(O)C(F)(F)F | > 2000 nM | 37% | –
COC1=CC(=O)C[C@@H](C)[C@]12Oc1c(Cl)c(OC)cc(OC)c1C2=O [GRISEOFULVIN] | – | – | MIC [5]: 0.5 µg/mL (≈ 1.42 µM); MIC [6]: 1 µg/mL (≈ 2.83 µM); MIC [7]: 2 µg/mL (≈ 5.67 µM); MIC [8]: 2 µg/mL (≈ 5.67 µM); MIC [9]: < 0.015 µg/mL; MIC (Aspergillus fumigatus [10]): 0.5 µg/mL (≈ 1.42 µM)
Cc1ccc(C)c(/C=c2\[nH]c(=O)/c(=C/c3nc[nH]c3C(C)(C)C)[nH]c2=O)c1.O=C(O)C(F)(F)F | – | 87% | –
COc1cccc(/C=c2\[nH]c(=O)/c(=C/c3nc[nH]c3C(C)(C)C)[nH]c2=O)c1O | 5360 to 5870 nM | 79 - 86% | –
CSc1ccccc1/C=c1\[nH]c(=O)/c(=C/c2nc[nH]c2C(C)(C)C)[nH]c1=O.O=C(O)C(F)(F)F | – | 87% | –
COc1cccc(/C=c2\[nH]c(=O)/c(=C/c3nc[nH]c3C(C)(C)C)[nH]c2=O)c1[N+](=O)[O-].O=C(O)C(F)(F)F | – | 83% | –
CC(C)(C)c1ocnc1/C=c1\[nH]c(=O)/c(=C/c2c3ccccc3cc3ccccc23)[nH]c1=O | > 6230 nM | – | –
COc1cc(/C=c2\[nH]c(=O)/c(=C/c3nc[nH]c3C(C)(C)C)[nH]c2=O)ccc1F.O=C(O)C(F)(F)F | – | 85% | –
CC(C)(C)c1ccc(O)c(/C=c2\[nH]c(=O)/c(=C/c3ccccc3)[nH]c2=O)c1.O=C(O)C(F)(F)F | > 2000 nM | 14% | –
COc1ccc(/C=c2\[nH]c(=O)/c(=C/c3nc[nH]c3C(C)(C)C)[nH]c2=O)cc1O.O=C(O)C(F)(F)F | – | 66% | –
CC(C)(C)c1[nH]cnc1/C=c1\[nH]c(=O)/c(=C/c2cc(Br)ccc2O)[nH]c1=O.O=C(O)C(F)(F)F | > 2000 nM | 13% | –
Cc1ccc(/C=c2\[nH]c(=O)/c(=C/c3nc[nH]c3C(C)(C)C)[nH]c2=O)s1 | 80 to 85.2 nM | 85 - 97% | –
COc1cc(OC)c(/C=c2\[nH]c(=O)/c(=C/c3nc[nH]c3C(C)(C)C)[nH]c2=O)c(OC)c1.O=C(O)C(F)(F)F | > 2000 nM | 2% | –
Cc1ccsc1/C=c1\[nH]c(=O)/c(=C/c2nc[nH]c2C(C)(C)C)[nH]c1=O | 44 to 47 nM | 86% | Activity [3]: 81%
CC(C)(C)c1ocnc1/C=c1\[nH]c(=O)/c(=C/c2cn(S(=O)(=O)c3ccccc3)c3ccccc23)[nH]c1=O | > 6230 nM | – | –
CC(C)(C)c1[nH]cnc1/C=c1\[nH]c(=O)/c(=C/c2ccc3c(c2)OCO3)[nH]c1=O | 82 to 87.3 nM | 84% | Activity [3]: 95%
CC(C)(C)c1ocnc1/C=c1\[nH]c(=O)/c(=C/c2c(F)ccc(F)c2F)[nH]c1=O | – | – | Ratio EC50 (HL-60): 1; Activity (Tubulin (Homo sapiens) [11]): Active; Activity (Tubulin (Homo sapiens) [12]): Active; IC50 [13]: 27 nM; Ratio EC50 (MES-SA): 1.2
C=CC(C)(C)c1[nH]cnc1/C=c1\[nH]c(=O)/c(=C/c2ccc(OC)cc2)[nH]c1=O | 6570 to 6730 nM | 63% | –
CC(C)(C)c1[nH]cnc1/C=c1\[nH]c(=O)/c(=C/c2ccc(Cl)s2)[nH]c1=O | 165 to 184 nM | – | –
CC(C)(C)c1[nH]cnc1/C=c1\[nH]c(=O)/c(=C/c2sccc2B(O)O)[nH]c1=O.O=C(O)C(F)(F)F | – | 88% | –
COc1ccsc1/C=c1\[nH]c(=O)/c(=C/c2nc[nH]c2C(C)(C)C)[nH]c1=O.O=C(O)C(F)(F)F | – | 88% | –
CC(C)(C)c1[nH]cnc1/C=c1\[nH]c(=O)/c(=C/c2ccc(C#N)cc2)[nH]c1=O.O=C(O)C(F)(F)F | – | 14% | –
